The values below come from patent US8853242B2, “Nitrogenous-ring acylguanidine derivative” (Astellas Pharma Inc., priority 2009, dated 2014).

The assay concerns the target human 5-HT5A receptor (Homo sapiens (Human), UniProt P47898). The assay is described as follows: Test on a human 5-HT5A receptor binding inhibition ([3H]5-CT). Conditions: membrane from HEK293 cells expressing human 5-HT5A receptor, Ki calculated from IC50. Here is the method:
The ORF (open reading frame; protein coding region) of a human 5-HT5A receptor (Genbank AF498985) was cloned from a human hippocampus cDNA library, and then inserted into a pCR2.1 vector (Invitrogen), and Escherichia coli containing the plasmid was cultured in a large amount. Next, the full-length cDNA sequence of the human 5-HT5A receptor was analyzed, and recombined into a pCDNA3.1 vector (Invitrogen) as an expression vector and cultured in a large amount. HEK293 established cells (ATCC) derived from the human fetal kidney were seeded, the expression plasmid (1 μg) obtained above were added thereto with LIPOFECTAMINE 2000 (Invitrogen; 2 μl), the gene was transfected into HEK293 cells, and the expression cells were screened with a drug-resistant marker, Geneticin (G418 sulfate 500 μg/ml; Kanto Chemical Co., Inc.). Thus prepared recombinant cells which expressed the gene were cultured in a medium containing D-MEM (Dulbecco's modified eagle medium, Sigma), 10% FCS (Fetal calf serum: fetal bovine serum), 1% Pc./Sm (Penicillin/Streptomycin, Invitrogen), and 500 μg/ml G418 for 3 days. These experimental operations followed a manual for gene operation experiment and an instruction appended in a reagent, and the like, such as a known method (Sambrook, J. et al, Molecular Cloning-A Laboratory Manual”, Cold Spring Harabor laboratory, NY, 1989).
HEK293 cells for forced expressions of a human 5-HT5A receptor were cultured in a F500 plate, and scraped with a scraper. After centrifugation, the precipitate was collected, and an incubation buffer (50 mM Tris (HCl) (pH 7.4), 10 mM MgSO4, and 0.5 mM EDTA (ethylenediamine tetraacetic acid)) was added thereto. After homogenization, it was further centrifuged, and the incubation buffer was added to the precipitate, followed by thoroughly suspending. The operation was repeated, and protein concentration was measured, thereby completing preparation of the membrane.
A solution of the compound to be tested and 100 μM 5-CT (5-carboxamidetriptamine) in DMSO was added to a 96-well plate at 2 μl/well, suspended in an incubation buffer, and a membrane from HEK293 cells for forced expressions of a human 5-HT5A receptor prepared at 200 μg/ml was added at 100 μl/well. After incubation at room temperature for 15 minutes, a [^3H]5-CT solution (2 nM [^3H]5-CT, incubation buffer) was added thereto at 100 μl/well.
Separately, 100 μl of the solution was distributed into a liquid scintillation vial, and 2 ml of Aquasol II (registered trademark) was added thereto, followed by stirring. Then, radioactivity was measured by a liquid scintillation counter. It was incubated at 37° C. for 60 minutes. The reaction mixture was sucked into 96-well GF/C filter plate that had been pre-treated with 0.2% polyethyleneimine, and washed six times with an ice-cooled, 50 mM Tris (pH 7.5) buffer. The GF/C filter plate was dried.
Microscint TMPS (registered trademark) was added thereto at 40 μl/well. Radioactivity remaining on the GF/C filter plate was measured by a top counter.
The [^3H]5-CT binding inhibiting activity by the compound to be tested in each experiment was determined as an IC50 value with a radioactivity upon addition of DMSO alone being 0% inhibition, and a radioactivity upon addition of 1 μM 5-CT being 100% inhibition. Separately, Ki values were calculated from the Kd value of the [^3H]5-CT determined from Scatchard analysis, by the following equation. Ki=IC50(1+Concentraion of ligand added/Kd(4.95 nM))

Molecules are shown by their SMILES. pKi: −log10 of the molar value. Counter-ions that a name gives are not always drawn.

Chain of human 5-HT5A receptor (P47898 whole entry): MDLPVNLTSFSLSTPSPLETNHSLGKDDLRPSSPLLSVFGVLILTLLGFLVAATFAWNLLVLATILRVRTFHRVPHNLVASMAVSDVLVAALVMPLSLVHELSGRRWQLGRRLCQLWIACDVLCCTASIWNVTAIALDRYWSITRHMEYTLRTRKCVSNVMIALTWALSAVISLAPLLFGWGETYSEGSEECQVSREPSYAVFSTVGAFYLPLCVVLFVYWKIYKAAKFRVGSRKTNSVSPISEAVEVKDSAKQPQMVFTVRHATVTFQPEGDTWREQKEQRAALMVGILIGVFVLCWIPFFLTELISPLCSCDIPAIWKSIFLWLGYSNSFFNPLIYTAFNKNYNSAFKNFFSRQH

Broadly, the pKi is the Ki on a negative log10 scale, so that one unit is a factor of ten. With `Cc1cc(C(=O)N=C(N)N)cc2c(-c3ccc(Cl)cc3F)ccnc12` [Example 67], the pKi ([3H]5-CT binding) was 8.00 to 9.00.
Same read-out and setting: for `NC(N)=NC(=O)c1ccc2c(Cl)cnc(-c3ccncc3F)c2c1` [Example 173] the value was 7.00 to 8.00.
Take `Cc1cc(C(=O)N=C(N)N)cc2c(-c3c(F)cccc3F)ccnc12` [Example 42]: the pKi ([3H]5-CT binding) is 8.00 to 9.00.
The same measure, in the same setting: for `COc1cc(F)ccc1-c1ncc(Cl)c2ccc(C(=O)N=C(N)N)cc12` [Example 174] the value was 7.00 to 8.00; for `Cc1cc(-c2c(F)cccc2Cl)c2cc(C(=O)N=C(N)N)ccc2n1` [Example 7], 7.00 to 8.00.
Still for that read-out and setting: next, `Cc1nc2ccc(C(=O)N=C(N)N)cc2c(-c2c(F)cccc2F)c1F` [Example 123]: 8.00 to 9.00; `Cc1nc2ccc(C(=O)N=C(N)N)cc2c(-c2ccccc2F)c1F` [Example 125]: 7.00 to 8.00.
With `NC(N)=NC(=O)c1ccc2c(F)cnc(-c3ncc(F)cc3Cl)c2c1` [Example 171], the pKi ([3H]5-CT binding inhibition) was 8.21.
As to `N#Cc1cnc(-c2c(F)cc(F)cc2F)c2cc(C(=O)N=C(N)N)ccc12` [Example 143], where the note is “[3H]5-CT binding”, the pKi was 7.00 to 8.00.
Still for that read-out and setting: for `NC(N)=NC(=O)c1ccc2nccc(-c3c(F)cc(Cl)cc3F)c2c1` [Example 13] the value was 8.00 to 9.00.
Still for that read-out and setting: next, `Cc1nc2ccc(C(=O)N=C(N)N)cc2c(-c2ccc(F)cc2)c1C` [Example 118]: 7.00 to 8.00; `NC(N)=NC(=O)c1ccc2c(F)cnc(-c3ccc(F)cc3)c2c1` [Example 190]: 8.00 to 9.00.
`NC(N)=NC(=O)c1cc(F)c2nccc(-c3c(F)cc(F)cc3F)c2c1` [Example 54]: the pKi ([3H]5-CT binding) was 7.00 to 8.00.
Turning to `NC(N)=NC(=O)c1ccc2c(C(F)F)cnc(-c3ccccc3F)c2c1` [Example 215], the pKi ([3H]5-CT binding) was 7.00 to 8.00.
Take `Cc1cnc2ccc(C(=O)N=C(N)N)cc2c1-c1ccc(F)cc1F` [Example 31]: the pKi ([3H]5-CT binding) is 8.00 to 9.00.
With `NC(N)=NC(=O)c1ccc2c(Cl)cnc(-c3ccccc3F)c2c1` [Example 175], the pKi ([3H]5-CT binding) is 8.00 to 9.00.
Same read-out and setting: for `NC(N)=NC(=O)c1ccc2cccc(-c3ccccc3)c2n1` [Example 225] the value was 6.52 to 7.00; for `NC(N)=NC(=O)c1ccc2ncc(Cl)c(-c3ccccc3F)c2c1` [Example 69], 8.00 to 9.00.
On the same count and under the same terms, for `N#Cc1ccc(-c2ccnc3ccc(C(=O)N=C(N)N)cc23)cc1` [Example 33] the value was 7.00 to 8.00.
Same read-out and setting: for `Cc1cc(C(=O)N=C(N)N)cc2c(-c3ccc(F)cc3F)c(Cl)cnc12` [Example 99] the value was 8.00 to 9.00; for `NC(N)=NC(=O)c1ccc2nccc(-c3ccccc3)c2c1` [Example 4], 7.00 to 8.00; for `COc1ncccc1-c1c(Cl)cnc2ccc(C(=O)N=C(N)N)cc12` [Example 106], 7.00 to 8.00.
Turning to `Cc1cnc2ccc(C(=O)N=C(N)N)cc2c1-c1c(F)cc(F)cc1Cl` [Example 23], the pKi ([3H]5-CT binding) was 8.00 to 9.00.
As for `Cc1cnc(-c2c(F)cc(F)cc2F)c2cc(C(=O)N=C(N)N)ccc12` [Example 152], the negative-log Ki (pKi) ([3H]5-CT binding inhibition) is 8.89.
Regarding `Cc1nc2ccc(C(=O)N=C(N)N)cc2c(-c2c(F)cc(F)cc2F)c1C` [Example 114], the pKi ([3H]5-CT binding inhibition) was 8.43.
`Cc1nc2ccc(C(=O)N=C(N)N)cc2c(-c2ccncc2Cl)c1C` [Example 127]: the pKi ([3H]5-CT binding) is 7.00 to 8.00.
With `NC(N)=NC(=O)c1ccc2nccc(-c3c(Cl)cc(Cl)cc3Cl)c2c1` [Example 27], where the note is “[3H]5-CT binding”, the negative logarithm of the Ki (pKi) was 8.00 to 9.00.
Same read-out and setting: for `NC(N)=NC(=O)c1ccc2c(Cl)cnc(-c3cc(F)c(F)cc3F)c2c1` [Example 212] the value was 7.00 to 8.00; for `NC(N)=NC(=O)c1ccc2c(Cl)cnc(-c3cccc(Cl)c3Cl)c2c1` [Example 100], 7.00 to 8.00; for `NC(N)=NC(=O)c1ccc2ccnc(-c3c(F)cccc3Cl)c2c1` [Example 134], 8.00 to 9.00.
Same read-out and setting: for `NC(N)=NC(=O)c1ccc2nccc(-c3ccc(Cl)cc3F)c2c1` [Example 14] the value was 7.00 to 8.00.
As for `COc1cc(F)c(-c2ccnc3c(C)cc(C(=O)N=C(N)N)cc23)c(F)c1` [Example 58], for the setting “[3H]5-CT binding”, the pKi is 8.00 to 9.00.
Still for that read-out and setting: next, `Cc1nc2ccc(C(=O)N=C(N)N)cc2c(-c2c(F)cccc2F)c1C` [Example 117]: 8.00 to 9.00; `NC(N)=NC(=O)c1ccc2c(Cl)cnc(-c3c(F)cc(F)cc3F)c2c1` [Example 142]: 8.00 to 9.00; `Cc1cc(-c2c(F)cc(F)cc2F)c2cc(C(=O)N=C(N)N)cc(C)c2n1` [Example 83]: 8.00 to 9.00.
On the same count and under the same terms, for `NC(N)=NC(=O)c1ccc2nccc(-c3cc(F)ccc3Cl)c2c1` [Example 63] the value was 7.00 to 8.00; for `NC(N)=NC(=O)c1ccc2ccnc(-c3c(F)cc(F)cc3F)c2c1` [Example 1, N-(diaminomethylene)-1-(2,4,6-trifluorophenyl)isoquinoline-7-carboxamide dihydrochloride], 8.00 to 9.00; for `Cc1nc2ccc(C(=O)N=C(N)N)cc2c(-c2ccccc2F)c1Cl` [Example 89], 8.00 to 9.00.
For `NC(N)=NC(=O)c1ccc2ncc(Cl)c(-c3ccc(F)cc3F)c2c1` [Example 60], the pKi ([3H]5-CT binding inhibition) was 8.89.
On to `Cc1cc(C(=O)N=C(N)N)cc2c(-c3ccc(Cl)cc3Cl)ccnc12` [Example 45], for which the pKi ([3H]5-CT binding) is 7.00 to 8.00.
For the compound `NC(N)=NC(=O)c1ccc2c(CO)cnc(-c3c(F)cccc3F)c2c1` [Example 224], the pKi ([3H]5-CT binding) was 7.00 to 8.00.
Still for that read-out and setting: next, `Cc1nc(-c2c(F)cc(F)cc2F)c2cc(C(=O)N=C(N)N)ccc2c1F` [Example 154]: 8.00 to 9.00; `NC(N)=NC(=O)c1ccc2c(Cl)cnc(-c3ccc(Cl)cc3F)c2c1` [Example 195]: 8.00 to 9.00; `NC(N)=NC(=O)c1ccc2nccc(-c3c(F)cc(F)cc3F)c2c1` [Example 5]: 8.00 to 9.00.
Still for that read-out and setting: for `N#Cc1cc(Cl)ccc1-c1nccc2ccc(C(=O)N=C(N)N)cc12` [Example 140] the value was 7.00 to 8.00.
With `CCc1cnc(-c2c(F)cccc2F)c2cc(C(=O)N=C(N)N)ccc12` [Example 172], under “[3H]5-CT binding”, the negative logarithm of the Ki (pKi) was 8.00 to 9.00.
Take `Cc1cc(-c2c(F)cc(F)cc2F)c2cc(C(=O)N=C(N)N)ccc2n1` [Example 6]: the pKi was 7.89 ([3H]5-CT binding inhibition) and 7.00 to 8.00 ([3H]5-CT binding).
Consider `NC(N)=NC(=O)c1ccc2nccc(-c3ccc(F)c(C(F)(F)F)c3)c2c1` [Example 37], for which, where the note is “[3H]5-CT binding”, the pKi was 6.52 to 7.00.
Still for that read-out and setting: next, `Cc1cc(C(=O)N=C(N)N)cc2c(-c3c(Cl)cccc3Cl)ccnc12` [Example 55]: 8.00 to 9.00; `COc1cc(C#N)ccc1-c1ccnc2ccc(C(=O)N=C(N)N)cc12` [Example 36]: 7.00 to 8.00; `Cc1cc(C(=O)N=C(N)N)cc2c(-c3c(F)cc(F)cc3F)ccnc12` [Example 39]: 8.00 to 9.00.
For `NC(N)=NC(=O)c1ccc2nccc(-c3c(F)cc(F)cc3Cl)c2c1` [Example 8], the pKi ([3H]5-CT binding) is 8.00 to 9.00.
Still for that read-out and setting: for `NC(N)=NC(=O)c1ccc2nccc(C3=CCCCC3)c2c1` [Example 62] the value was 8.00 to 9.00.
Regarding `NC(N)=NC(=O)c1ccc2c(F)cnc(-c3ccncc3Cl)c2c1` [Example 163], under “[3H]5-CT binding”, the negative-log Ki (pKi) was 7.00 to 8.00.
Still for that read-out and setting: for `Cc1cnc2ccc(C(=O)N=C(N)N)cc2c1-c1ccccc1F` [Example 51] the value was 8.00 to 9.00; for `COc1cccc(F)c1-c1ncc(Cl)c2ccc(C(=O)N=C(N)N)cc12` [Example 166], 8.00 to 9.00; for `Cc1cc(C(=O)N=C(N)N)cc2c(-c3ccc(F)cc3F)ccnc12` [Example 44], 8.00 to 9.00.
Same read-out and setting: for `Cc1nc2ccc(C(=O)N=C(N)N)cc2c(-c2ccccc2Cl)c1C` [Example 122] the value was 7.00 to 8.00; for `Cc1cnc2ccc(C(=O)N=C(N)N)cc2c1-c1c(F)cccc1F` [Example 32], 8.00 to 9.00; for `CN/C(N)=N/C(=O)c1ccc2nccc(-c3c(F)cc(F)cc3F)c2c1` [Example 3, N-[1-amino(methylamino)methylene]-4-(2,4,6-trifluorophenyl)quinoline-6-carboxamide dihydrochloride], 8.00 to 9.00.
